Values of other authors, collected in article PMC7927942 (Journal of chemical information and modeling, 2020).

Target: wild-type JAK2 JH2 (Homo sapiens, UniProt O60674)
Settings: benchmark ligand from high-throughput screen

Sequence of wild-type JAK2 JH2 (O60674 545-809 limits assumed): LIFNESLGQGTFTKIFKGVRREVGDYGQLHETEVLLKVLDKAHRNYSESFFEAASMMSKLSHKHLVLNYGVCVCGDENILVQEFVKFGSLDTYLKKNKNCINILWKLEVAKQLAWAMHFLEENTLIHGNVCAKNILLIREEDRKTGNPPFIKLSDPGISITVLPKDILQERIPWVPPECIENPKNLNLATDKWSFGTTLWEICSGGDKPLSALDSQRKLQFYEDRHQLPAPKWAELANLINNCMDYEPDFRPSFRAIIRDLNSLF

Structure (SMILES): O=C(Nc1nc2cccc(-c3ccc(CN4CCS(=O)(=O)CC4)cc3)n2n1)C1CC1 [filgotinib]
- % binding at 50 μM: 9%
